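Assay format: 96-well plates, 48-hour exposure. At the TGI there is no net growth.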
How the values were obtained:
Assay in all cases: NCI anticancer screen, dose series, 48 h
786-0 renal = test system: 786-0 renal
A498 renal = test system: A498 renal
A549 NSCLC = test system: A549 NSCLC
ACHN renal = test system: ACHN renal
BT-549 breast = test system: BT-549 breast
CCRF-CEM leukemia = test system: CCRF-CEM leukemia
COLO 205 colon = test system: COLO 205 colon
DU-145 prostate = test system: DU-145 prostate
EKVX NSCLC = test system: EKVX NSCLC
HCC-2998 colon = test system: HCC-2998 colon
HCT-116 colon = test system: HCT-116 colon
HCT-15 colon = test system: HCT-15 colon
HL-60(TB) leukemia = test system: HL-60(TB) leukemia
HOP-62 NSCLC = test system: HOP-62 NSCLC
HOP-92 NSCLC = test system: HOP-92 NSCLC
HS 578T breast = test system: HS 578T breast
HT29 colon = test system: HT29 colon
IGROV1 ovarian = test system: IGROV1 ovarian
K-562 leukemia = test system: K-562 leukemia
KM12 colon = test system: KM12 colon
LOX IMVI melanoma = test system: LOX IMVI melanoma
M14 melanoma = test system: M14 melanoma
MALME-3M melanoma = test system: MALME-3M melanoma
MCF7 breast = test system: MCF7 breast
MDA-MB-231 breast = test system: MDA-MB-231 breast
MDA-MB-435 = test system: MDA-MB-435
MDA-N = test system: MDA-N
MOLT-4 leukemia = test system: MOLT-4 leukemia
NCI-H226 lung = test system: NCI-H226 lung
NCI-H23 lung = test system: NCI-H23 lung
NCI-H460 lung = test system: NCI-H460 lung
NCI-H522 lung = test system: NCI-H522 lung
NCI/ADR-RES ovarian = test system: NCI/ADR-RES ovarian
OVCAR-3 ovarian = test system: OVCAR-3 ovarian
OVCAR-4 ovarian = test system: OVCAR-4 ovarian
OVCAR-5 ovarian = test system: OVCAR-5 ovarian
OVCAR-8 ovarian = test system: OVCAR-8 ovarian
PC-3 prostate = test system: PC-3 prostate
RPMI-8226 leukemia = test system: RPMI-8226 leukemia
RXF 393 renal = test system: RXF 393 renal
SF-268 CNS = test system: SF-268 CNS
SF-295 CNS = test system: SF-295 CNS
SF-539 CNS = test system: SF-539 CNS
SK-MEL-2 melanoma = test system: SK-MEL-2 melanoma
SK-MEL-28 melanoma = test system: SK-MEL-28 melanoma
SK-MEL-5 melanoma = test system: SK-MEL-5 melanoma
SK-OV-3 ovarian = test system: SK-OV-3 ovarian
SN12C renal = test system: SN12C renal
SNB-19 CNS = test system: SNB-19 CNS
SNB-75 CNS = test system: SNB-75 CNS
SR leukemia = test system: SR leukemia
SW-620 colon = test system: SW-620 colon
T-47D breast = test system: T-47D breast
TK-10 renal = test system: TK-10 renal
U251 CNS = test system: U251 CNS
UACC-257 melanoma = test system: UACC-257 melanoma
UACC-62 melanoma = test system: UACC-62 melanoma
UO-31 renal = test system: UO-31 renal
CAKI-1 renal = test system: CAKI-1 renal

Measured: TGI

O=C(O)C1(Cc2ccc3c(c2)CCC3)Cc2ccccc2C1
> 100000 nM: HL-60(TB) leukemia
> 100 µM: 786-0 renal | A498 renal | A549 NSCLC | ACHN renal | BT-549 breast | CCRF-CEM leukemia | COLO 205 colon | DU-145 prostate | EKVX NSCLC | HCC-2998 colon | HCT-116 colon | HCT-15 colon | HOP-62 NSCLC | HOP-92 NSCLC | HS 578T breast | HT29 colon | IGROV1 ovarian | K-562 leukemia | KM12 colon | LOX IMVI melanoma | M14 melanoma | MALME-3M melanoma | MCF7 breast | MDA-MB-231 breast | MDA-MB-435 | MDA-N | MOLT-4 leukemia | NCI-H226 lung | NCI-H23 lung | NCI-H460 lung | NCI-H522 lung | NCI/ADR-RES ovarian | OVCAR-3 ovarian | OVCAR-4 ovarian | OVCAR-5 ovarian | OVCAR-8 ovarian | PC-3 prostate | RPMI-8226 leukemia | RXF 393 renal | SF-268 CNS | SF-295 CNS | SF-539 CNS | SK-MEL-2 melanoma | SK-MEL-28 melanoma | SK-MEL-5 melanoma | SK-OV-3 ovarian | SN12C renal | SNB-19 CNS | SNB-75 CNS | SR leukemia | SW-620 colon | T-47D breast | TK-10 renal | U251 CNS | UACC-257 melanoma | UACC-62 melanoma | UO-31 renal

Cc1ccn2c(CCc3nnc4cc(C)ccn34)nnc2c1
623 nM: HL-60(TB) leukemia
> 100 µM: 786-0 renal | A498 renal | A549 NSCLC | ACHN renal | BT-549 breast | CAKI-1 renal | COLO 205 colon | DU-145 prostate | EKVX NSCLC | HCT-116 colon | HCT-15 colon | HOP-62 NSCLC | HOP-92 NSCLC | HS 578T breast | HT29 colon | IGROV1 ovarian | KM12 colon | M14 melanoma | MALME-3M melanoma | MCF7 breast | MDA-MB-231 breast | MDA-MB-435 | MDA-N | MOLT-4 leukemia | NCI-H226 lung | NCI-H23 lung | NCI-H460 lung | NCI-H522 lung | NCI/ADR-RES ovarian | OVCAR-3 ovarian | OVCAR-4 ovarian | OVCAR-5 ovarian | OVCAR-8 ovarian | PC-3 prostate | RPMI-8226 leukemia | RXF 393 renal | SF-268 CNS | SF-295 CNS | SF-539 CNS | SK-MEL-2 melanoma | SK-MEL-28 melanoma | SK-MEL-5 melanoma | SK-OV-3 ovarian | SN12C renal | SNB-19 CNS | SNB-75 CNS | SR leukemia | SW-620 colon | T-47D breast | TK-10 renal | U251 CNS | UACC-257 melanoma | UACC-62 melanoma | UO-31 renal

— PubChem BioAssay (NCI)
